Measurements taken from patent US20250381165A1, “Method of Use for Benzofuran Compounds” (Tampa Bay Research Institute, Inc., priority 2024, published 2025).

Key:
[1] = test system: SIINFEKL specific CD8+ T cells; test: Immunization with BzFβ/SIINFEKL treated DC2.4 cells; type: in vivo, C57BL/6crl mice; settings: mice immunized sc with 1.2×10^6 DC2.4 treated with 50 μg/mL BzFβ then 1 μg/mL SIINFEKL; prime and boost
Description: DC2.4 cells that had been matured by an overnight treatment with 20 ng/mL murine IFNγ (He, et al., Interferon gamma stimulates cellular maturation of dendritic cell line DC2.4 leading to induction of efficient cytotoxic T cell responses and antitumor immunity. Cell Mol Immunol. 2007; 4(2):105-11) were treated with 30 μg/mL mitomycin C to block replication and were then pulsed for 1 h with 1 μg/mL SIINFEKL peptide (Group 2), or with 50 μg/mL BzFβ for 1 h and then with 1 μg/mL SIINFEKL peptide for 1 h (Group 3).
Female C57BL/6crl mice were separated into 3 groups with 6 mice per group. The mice in Group 1 served as the naïve, no treatment group, Group 2 treated with by subcutaneous injection of 1.2×10^6 DC2.4 cells primed with IFNγ, mitomycin C and SIINFEKL, and Group 3 treated by subcutaneous injection of 1.2×10^6 DC2.4 cells primed with BzFβ and SIINFEKL as outlined above. […] Fourteen days later, the number of MHC class I/SIINFEKL tetramer positive CD8+ cells in the peripheral blood and spleen were determined.
On day 21 (14 days after the last immunization) blood was collected from the retro-orbital plexus. […] The number of CD19 negative^−/CD8 positive/SIINFEKL tetramer positive cells was determined by flow cytometric analysis following collection of positive events detected in the lymphocyte gate. […]

[2] = Detection of BzFβ in serum by HPLC; type: in vivo, C57BL/6NCrl mice
Description: Six- to ten-week-old male and female C57BL/6NCrl mice (Charles River Laboratories, Wilmington MA; cat. no. 027) were used for all animal studies. The mice were maintained in accord with the NIH Guide for the Care and Use of Laboratory Animals. Experimental procedures were performed in accord with research protocols approved by the Tampa Bay Research Institute's Institutional Animal Care and Use Committee. Mice were maintained in an INOVIVE individually ventilated cage system with 3 mice per cage containing 100% virgin wood pulp bedding (Harlan Teklad™, Harlan Sprague Dawley Inc., Indianapolis, IA; cat. no. 7099). Water and food (Harlan Teklad™, cat. no. 8640) were available ad libitum. The mice were maintained on a cycle of 12 h of light and 12 h of dark in an environment with a temperature of 74-76° […]. and 40-60% humidity. All cages underwent 40 air changes hourly in the negative pressure mode, in accordance with manufacturer's recommendations. Both the intake and exhaust air from the system were filtered through HEPA filters to maintain a clean environment. Stock solutions of BzFβ were solubilized in alkaline water (pH 10) and then sterile filtered through 0.22 µm syringe filters. BzFβ used for iv or im injections was diluted in 0.9% saline (normal saline). The stock solutions of the SIINFEKL peptide were prepared in 1× calcium/magnesium free Dulbecco's phosphate-buffered saline (DPBS; ThermoFisher Scientific, cat. no. 14190144).
After overnight fasting, six-to ten-week-old mice were gavaged with 1-2 mg of BzFβ solubilized in 200 μL alkaline water or were injected intramuscular (IM) or intravenous with 100 μg diluted in normal saline. After various times mice were anesthetized using 2.0% isoflurane with O2 at 1 L/min, and 200-500 μL of blood was collected in a microfuge tube containing 700 μL of 50 mM EDTA in DPBS as an anticoagulant. The blood samples were centrifuged at 4500×g for 20 min to separate the plasma from the cells. The resulting plasma (200 μL) was removed and extracted with 4 mL methanol. This mixture was vortexed for 30 s and centrifuged at 4000×g for 10 min at 4° C. The supernatant was collected and dried using a SpeedVac (SC210 Å) under a vacuum of 0.4 torr at 65° C. When dry, the sample was removed and resuspended in 100 μL methanol and then re-centrifuged to remove any precipitates. A 20 μL sample of this mixture was analyzed by HPLC.
BzFβ was detected in the serum using a Shimadzu high performance liquid chromatography (HPLC) system. The Shimadzu system consisted of two LC-20AR pumps, a SPD-M20A diode array UV-Vis detector, and a 20 μL injection loop onto a Phenomenex Luna […] Analytical PFP column 100 A (cat. no. OOF-4448-E0). Analysis and data collection were conducted using Shimadzu LabSolutions software. Samples ([…]) were injected onto the column and separated using a gradient of acetonitrile (ACN) and water as the mobile phase. The gradient started with 10% ACN and increased stepwise to 80% ACN for peak clarity. Buffer B was water adjusted to pH 2.5 using phosphoric acid. The column was kept at a constant temperature of 30° C. (Chai, et al., Comprehensive study of the intestinal absorption of four phenolic compounds after oral administration of Ananas comosus leaf extract in vivo and in vitro. Afr J Pharm Pharmacol. 2013 Jul. 15; 7(26):1781-92).
Following up on the prediction that BzFβ should be able to be absorbed through the GI tract and gain access to the systemic circulation, C57Bl/6crl mice were gavaged (po) with either 200 μL of alkaline water (negative control) or with 2 mg of BzFβ solubilized in 200 μL alkaline water. Fifteen minutes later, peripheral blood was obtained. The serum was extracted with methanol, lyophilized, and then examined by HPLC for the presence of BzFβ. […] BzFβ was then administered to another group of mice iv (100 μg), im ([…]), and po (1 mg). After 15 min, the serum was collected, extracted with methanol, and then analyzed by HPLC. […]

## O=C(O)/C=C/c1ccc2occc2c1 [BzFβ, (2E)-3-(1-benzofuran-5-yl)prop-2-enoic acid]
[1]
  SIINFEKL-specific CD8+ T cell response: enhanced SIINFEKL-specific CD8+ T cell response
[2]; 1, 2 and 3 h post im injection of 1 mg
  persistence in serum: still detectable
[2]; GI tract and bloodstream
  stability in vivo compared with dipeptides: much more stable in the GI tract and bloodstream
[2]; iv (100 μg), im (100 g), po (1 mg), 15 min
  presence in serum by HPLC: presence of the appropriate peak
[2]; oral administration
  earliest detection in blood plasma: 30 min
  latest detection in blood plasma: 3 h
[2]; po 2 mg, fifteen minutes
  presence in serum by HPLC: revealed the presence of BzFβ
